Common to all, as to format: functional
The test system of test [1] is LNCaP. Briefly: Selectivity ratio of LC50 for human PC3 cells to LC50 for human LNCaP cells.
The subject of the next test is PC-3. Briefly: Cytotoxicity against human PC3 cells assessed as induction of cell death after 48 hrs by MTS assay. The settings on record: PC-3, 48 h, read-out: LC50 (the source's name).
The test system of test [2] is LNCaP. Briefly: Cytotoxicity against human LNCAP cells assessed as induction of cell death after 48 hrs by MTS assay. The settings on record: read-out: LC50 (the source's name). For orientation: Tetrazolium assays rely on reduction of a dye to a coloured formazan, in cell work by metabolically active cells.

Numbered stars: 1 amine (or outer) side, 2 acyl side, 3 side chain; on linkers, the order of the positions; unused ones are H or OH. Square brackets hold non-standard residues; d marks the D form. Peptide text beside a SMILES is read from it. γGlu = O=C(O)[C@H](CCC(=O)[*:2])N[*:1]; Hyp = O=C(O)[C@@H]1C[C@@H](O)CN1; Nspe = C[C@H](NCC(=O)O)c1ccccc1; Chg = N[C@H](C(=O)O)C1CCCCC1; Nlys = NCCCCNCC(=O)O

`CC(C)C[C@H](NC(=O)[C@H](CCCCN)NC(=O)[C@H](CO)NC(=O)[C@H](CO)NC(=O)[C@@H](N)Cc1cnc[nH]1)C(=O)N[C@@H](CCC(N)=O)C(=O)N(CCCCN)CC(=O)N(CC(=O)N(CC(=O)N(CCCCN)CC(=O)N(CC(=O)N(CC(=O)N(CCCCN)CC(=O)N(CC(=O)N(CC(=O)N(CCCCN)CC(=O)N(CC(=O)N(CC(N)=O)[C@@H](C)c1ccccc1)[C@@H](C)c1ccccc1)[C@@H](C)c1ccccc1)[C@@H](C)c1ccccc1)[C@@H](C)c1ccccc1)[C@@H](C)c1ccccc1)[C@@H](C)c1ccccc1)[C@@H](C)c1ccccc1` (H-HSSKLQ[Nlys][Nspe][Nspe][Nlys][Nspe][Nspe][Nlys][Nspe][Nspe][Nlys][Nspe][Nspe]-NH2): in the test on LNCaP [1], the RatioLC50 is 2.1. The CC50 in the test on PC-3 turned out to be 19.6 µM; with LNCaP [2] it was 9.2 µM.

For the molecule `C[C@@H](c1ccccc1)N(CC(N)=O)C(=O)CN(C(=O)CN(CCCCN)C(=O)CN(C(=O)CN(C(=O)CN(CCCCN)C(=O)CN(C(=O)CN(C(=O)CN(CCCCN)C(=O)CN(C(=O)CN(C(=O)CN(CCCCN)C(=O)[C@@H]1CCCN1C(=O)[C@H](CO)NC(=O)[C@H](CO)NC(=O)[C@H](CCC(N)=O)NC(=O)[C@@H](NC(=O)[C@H](CO)NC(=O)[C@H](CO)NC(=O)[C@@H]1C[C@@H](O)CN1)C1CCCCC1)[C@@H](C)c1ccccc1)[C@@H](C)c1ccccc1)[C@@H](C)c1ccccc1)[C@@H](C)c1ccccc1)[C@@H](C)c1ccccc1)[C@@H](C)c1ccccc1)[C@@H](C)c1ccccc1` (H-[Hyp]SS[Chg]QSSP[Nlys][Nspe][Nspe][Nlys][Nspe][Nspe][Nlys][Nspe][Nspe][Nlys][Nspe][Nspe]-NH2), the RatioLC50 with LNCaP [1] was found to be 2.1. The CC50 was found to be 35 µM in the test with PC-3 and 17 µM with LNCaP [2].

As to `CC(C)C[C@H](NC(=O)[C@H](CCCCN)NC(=O)[C@H](CO)NC(=O)[C@H](CO)NC(=O)[C@H](Cc1cnc[nH]1)NC(=O)CNCCCCN)C(=O)N[C@@H](CCC(N)=O)C(=O)N(CC(=O)N(CC(=O)N(CCCCN)CC(=O)N(CC(=O)N(CC(=O)N(CCCCN)CC(=O)N(CC(=O)N(CC(=O)N(CCCCN)CC(=O)N(CC(=O)N(CC(N)=O)[C@@H](C)c1ccccc1)[C@@H](C)c1ccccc1)[C@@H](C)c1ccccc1)[C@@H](C)c1ccccc1)[C@@H](C)c1ccccc1)[C@@H](C)c1ccccc1)[C@@H](C)c1ccccc1)[C@@H](C)c1ccccc1` (H-[Nlys]HSSKLQ[Nspe][Nspe][Nlys][Nspe][Nspe][Nlys][Nspe][Nspe][Nlys][Nspe][Nspe]-NH2), the RatioLC50 with LNCaP [1] is listed as 3. For the same molecule, the results for the CC50 with PC-3 and in the test on LNCaP [2] were 16.9 µM and 5.7 µM, respectively.

`CC(C)C[C@H](NC(=O)[C@H](CCCCN)NC(=O)[C@H](CO)NC(=O)[C@H](CO)NC(=O)[C@H](Cc1cnc[nH]1)NC(=O)CN(CCCCN)C(=O)CN(C(=O)CN(C(=O)CNCCCCN)[C@@H](C)c1ccccc1)[C@@H](C)c1ccccc1)C(=O)N[C@@H](CCC(N)=O)C(=O)N(CC(=O)N(CC(=O)N(CCCCN)CC(=O)N(CC(=O)N(CC(=O)N(CCCCN)CC(=O)N(CC(=O)N(CC(=O)N(CCCCN)CC(N)=O)[C@@H](C)c1ccccc1)[C@@H](C)c1ccccc1)[C@@H](C)c1ccccc1)[C@@H](C)c1ccccc1)[C@@H](C)c1ccccc1)[C@@H](C)c1ccccc1` (H-[Nlys][Nspe][Nspe][Nlys]HSSKLQ[Nspe][Nspe][Nlys][Nspe][Nspe][Nlys][Nspe][Nspe][Nlys]-NH2): the RatioLC50 in the test with LNCaP [1] was 3.2. The CC50 in the test on PC-3 was 19.1 µM; with LNCaP [2], 5.9 µM.

For the molecule `C[C@@H](c1ccccc1)N(CC(N)=O)C(=O)CN(C(=O)CN(CCCCN)C(=O)CN(C(=O)CN(C(=O)CN(CCCCN)C(=O)CN(C(=O)CN(C(=O)CN(CCCCN)C(=O)CN(C(=O)CN(C(=O)CNCCCCN)[C@@H](C)c1ccccc1)[C@@H](C)c1ccccc1)[C@@H](C)c1ccccc1)[C@@H](C)c1ccccc1)[C@@H](C)c1ccccc1)[C@@H](C)c1ccccc1)[C@@H](C)c1ccccc1` (H-[Nlys][Nspe][Nspe][Nlys][Nspe][Nspe][Nlys][Nspe][Nspe][Nlys][Nspe][Nspe]-NH2), the RatioLC50 with LNCaP [1] is reported as 1.7. The CC50 came to 8.5 µM with PC-3 and 5 µM in the test with LNCaP [2].

On to `CC(C)C[C@H](NC(=O)[C@H](CCCCN)NC(=O)[C@H](CO)NC(=O)[C@H](CO)NC(=O)[C@H](Cc1cnc[nH]1)NC(=O)CC[C@H](NC(=O)CC[C@H](NC(=O)CC[C@H](NC(=O)CC[C@H](N)C(=O)O)C(=O)O)C(=O)O)C(=O)O)C(=O)N[C@@H](CCC(N)=O)C(=O)N(CCCCN)CC(=O)N(CC(=O)N(CC(=O)N(CCCCN)CC(=O)N(CC(=O)N(CC(=O)N(CCCCN)CC(=O)N(CC(=O)N(CC(=O)N(CCCCN)CC(=O)N(CC(=O)N(CC(N)=O)[C@@H](C)c1ccccc1)[C@@H](C)c1ccccc1)[C@@H](C)c1ccccc1)[C@@H](C)c1ccccc1)[C@@H](C)c1ccccc1)[C@@H](C)c1ccccc1)[C@@H](C)c1ccccc1)[C@@H](C)c1ccccc1` ({γGlu-γGlu-γGlu-γGlu}-HSSKLQ[Nlys][Nspe][Nspe][Nlys][Nspe][Nspe][Nlys][Nspe][Nspe][Nlys][Nspe][Nspe]-NH2), for which, in the test with LNCaP [1], the RatioLC50 is 2.1. In addition, the results for the CC50 with PC-3 and with LNCaP [2] were 36 µM and 17 µM, respectively.

On to `CC(C)C[C@H](NC(=O)[C@H](CCCCN)NC(=O)[C@H](CO)NC(=O)[C@H](CO)NC(=O)[C@H](Cc1cnc[nH]1)NC(=O)CC[C@H](NC(=O)CC[C@H](NC(=O)CC[C@H](N)C(=O)O)C(=O)O)C(=O)O)C(=O)N[C@@H](CCC(N)=O)C(=O)N(CCCCN)CC(=O)N(CC(=O)N(CC(=O)N(CCCCN)CC(=O)N(CC(=O)N(CC(=O)N(CCCCN)CC(=O)N(CC(=O)N(CC(=O)N(CCCCN)CC(=O)N(CC(=O)N(CC(N)=O)[C@@H](C)c1ccccc1)[C@@H](C)c1ccccc1)[C@@H](C)c1ccccc1)[C@@H](C)c1ccccc1)[C@@H](C)c1ccccc1)[C@@H](C)c1ccccc1)[C@@H](C)c1ccccc1)[C@@H](C)c1ccccc1` ({γGlu-γGlu-γGlu}-HSSKLQ[Nlys][Nspe][Nspe][Nlys][Nspe][Nspe][Nlys][Nspe][Nspe][Nlys][Nspe][Nspe]-NH2), for which the RatioLC50 in the test on LNCaP [1] worked out at 2. The CC50 in the test with PC-3 was found to be 34 µM; with LNCaP [2], 17 µM.

In the case of `C[C@@H](c1ccccc1)N(CC(N)=O)C(=O)CN(C(=O)CN(CCCCN)C(=O)CN(C(=O)CN(C(=O)CN(CCCCN)C(=O)CN(C(=O)CN(C(=O)CN(CCCCN)C(=O)CN(C(=O)CN(C(=O)CN(CCCCN)C(=O)CC[C@H](NC(=O)CC[C@H](NC(=O)CC[C@H](N)C(=O)O)C(=O)O)C(=O)O)[C@@H](C)c1ccccc1)[C@@H](C)c1ccccc1)[C@@H](C)c1ccccc1)[C@@H](C)c1ccccc1)[C@@H](C)c1ccccc1)[C@@H](C)c1ccccc1)[C@@H](C)c1ccccc1` ({γGlu-γGlu-γGlu}-[Nlys][Nspe][Nspe][Nlys][Nspe][Nspe][Nlys][Nspe][Nspe][Nlys][Nspe][Nspe]-NH2), the RatioLC50 in the test on LNCaP [1] came to 1.1. Further, the CC50 with PC-3 was found to be 17 µM; in the test with LNCaP [2] it was 15 µM.

Regarding `CC(C)C[C@H](NC(=O)[C@H](CCCCN)NC(=O)[C@H](CO)NC(=O)[C@H](CO)NC(=O)[C@H](Cc1cnc[nH]1)NC(=O)CC[C@H](NC(=O)CC[C@H](N)C(=O)O)C(=O)O)C(=O)N[C@@H](CCC(N)=O)C(=O)N(CCCCN)CC(=O)N(CC(=O)N(CC(=O)N(CCCCN)CC(=O)N(CC(=O)N(CC(=O)N(CCCCN)CC(=O)N(CC(=O)N(CC(=O)N(CCCCN)CC(=O)N(CC(=O)N(CC(N)=O)[C@@H](C)c1ccccc1)[C@@H](C)c1ccccc1)[C@@H](C)c1ccccc1)[C@@H](C)c1ccccc1)[C@@H](C)c1ccccc1)[C@@H](C)c1ccccc1)[C@@H](C)c1ccccc1)[C@@H](C)c1ccccc1` ({γGlu-γGlu}-HSSKLQ[Nlys][Nspe][Nspe][Nlys][Nspe][Nspe][Nlys][Nspe][Nspe][Nlys][Nspe][Nspe]-NH2), in the test with LNCaP [1], the RatioLC50 is 1.8. Further, the CC50 stood at 18 µM in the test on PC-3 and 10 µM with LNCaP [2].

As to `C[C@@H](c1ccccc1)N(CC(N)=O)C(=O)CN(C(=O)CN(CCCCN)C(=O)CN(C(=O)CN(C(=O)CN(CCCCN)C(=O)CN(C(=O)CN(C(=O)CN(CCCCN)C(=O)CN(C(=O)CN(C(=O)CN(CCCCN)C(=O)CC[C@H](NC(=O)CC[C@H](N)C(=O)O)C(=O)O)[C@@H](C)c1ccccc1)[C@@H](C)c1ccccc1)[C@@H](C)c1ccccc1)[C@@H](C)c1ccccc1)[C@@H](C)c1ccccc1)[C@@H](C)c1ccccc1)[C@@H](C)c1ccccc1` ({γGlu-γGlu}-[Nlys][Nspe][Nspe][Nlys][Nspe][Nspe][Nlys][Nspe][Nspe][Nlys][Nspe][Nspe]-NH2), the RatioLC50 in the test on LNCaP [1] came to 1.8. Besides, the CC50 came to 18 µM in the test with PC-3 and 10 µM in the test with LNCaP [2].
